Data published in ChEMBL document CHEMBL1201862, “PubChem BioAssay data set” (2004).
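The compound was tested at five concentrations on cells cultured in 96-well plates, with a 48-hour exposure period. At the GI50, growth is halved.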 Calls of active or inactive are those of the source. Rule as the data show it: active = GI50 up to about 1.1 µM and inactive = higher.

Tests used:
Assay in all cases: inhibition of tumour cell growth, NCI panel, 48 h
HL-60 = test system: HL-60
NCI-H23 = test system: NCI-H23
HCT-116 = test system: HCT-116
KM12 = test system: KM12
SK-MEL-2 = test system: SK-MEL-2
SK-MEL-28 = test system: SK-MEL-28
SF-268 = test system: SF-268
SNB-19 = test system: SNB-19
IGROV-1 = test system: IGROV-1
M19-MEL = test system: M19-MEL
NCI-H226 = test system: NCI-H226
KM-20L2 = test system: KM-20L2
HT-29 = test system: HT-29
A498 = test system: A498
OVCAR-4 = test system: OVCAR-4
HCT-15 = test system: HCT-15
SF-539 = test system: SF-539
UACC-62 = test system: UACC-62
HOP-62 = test system: HOP-62
SK-OV-3 = test system: SK-OV-3
A549 = test system: A549
RXF 631 = test system: RXF 631
LOX IMVI = test system: LOX IMVI
SW-620 = test system: SW-620
SN12C = test system: SN12C
NCI-H460 = test system: NCI-H460
ACHN = test system: ACHN
U-251 = test system: U-251
CCRF-CEM = test system: CCRF-CEM
HOP-92 = test system: HOP-92
SF-295 = test system: SF-295
786-0 = test system: 786-0
Malme-3M = test system: Malme-3M
RXF 393 = test system: RXF 393
DLD-1 = test system: DLD-1
COLO 205 = test system: COLO 205
M14 = test system: M14
UACC-257 = test system: UACC-257
DMS-114 = test system: DMS-114
EKVX = test system: EKVX
OVCAR-5 = test system: OVCAR-5
SNB-78 = test system: SNB-78
UO-31 = test system: UO-31
CAKI-1 = test system: CAKI-1
OVCAR-3 = test system: OVCAR-3
HCC 2998 = test system: HCC 2998
LXFL 529 = test system: LXFL 529
HOP-18 = test system: HOP-18
SNB-75 = test system: SNB-75
MOLT-4 = test system: MOLT-4
SR = test system: SR
RPMI-8226 = test system: RPMI-8226
OVCAR-8 = test system: OVCAR-8
SK-MEL-5 = test system: SK-MEL-5
NCI-H522 = test system: NCI-H522
K562 = test system: K562

In the case of `Cc1ccccc1NC(=O)C1C(=O)N(c2ccccc2C)C(=O)/C1=N\N` (stereo unspecified), the GI50 (HL-60) is reported as > 100 µM (inactive), the GI50 (NCI-H23) is reported as > 100 µM (inactive) and the GI50 (HCT-116) is reported as > 100 µM (inactive). For the same compound, the GI50 (KM12) was > 100 µM (inactive), the GI50 (SK-MEL-2) was > 100 µM (inactive) and the GI50 (SK-MEL-28) was > 100 µM (inactive). The GI50 (SF-268) was > 100 µM (inactive), the GI50 (SNB-19) was > 100 µM (inactive) and the GI50 (IGROV-1) was > 100 µM (inactive). For the same compound, the GI50 (M19-MEL) was > 100 µM (inactive), the GI50 (NCI-H226) was > 100 µM (inactive) and the GI50 (KM-20L2) was > 100 µM (inactive). The GI50 (HT-29) was > 100 µM (inactive), the GI50 (A498) was > 100 µM (inactive) and the GI50 (OVCAR-4) was > 100 µM (inactive). The GI50 (HCT-15) was > 100 µM, the GI50 (SF-539) was > 100 µM (inactive) and the GI50 (UACC-62) was > 100 µM (inactive). The GI50 (HOP-62) was > 100 µM (inactive), the GI50 (SK-OV-3) was > 100 µM (inactive) and the GI50 (A549) was > 100 µM (inactive). For the same compound, the GI50 (RXF 631) was > 100 µM (inactive), the GI50 (LOX IMVI) was > 100 µM (inactive) and the GI50 (SW-620) was > 100 µM (inactive). The GI50 (SN12C) was > 100 µM (inactive), the GI50 (NCI-H460) was > 100 µM (inactive) and the GI50 (ACHN) was > 100 µM (inactive). The GI50 (U-251) was > 100 µM (inactive), the GI50 (CCRF-CEM) was > 100 µM (inactive) and the GI50 (HOP-92) was > 100 µM (inactive). For the same compound, the GI50 (SF-295) was > 100 µM (inactive), the GI50 (786-0) was > 100 µM (inactive) and the GI50 (Malme-3M) was > 100 µM (inactive). For the same compound, the GI50 (RXF 393) was > 100 µM (inactive), the GI50 (DLD-1) was > 100 µM (inactive) and the GI50 (COLO 205) was > 100 µM (inactive). The GI50 (M14) was > 100 µM (inactive), the GI50 (UACC-257) was > 100 µM (inactive) and the GI50 (DMS-114) was > 100 µM (inactive). For the same compound, the GI50 (EKVX) was > 100 µM (inactive), the GI50 (OVCAR-5) was > 100 µM (inactive) and the GI50 (SNB-78) was > 100 µM (inactive). For the same compound, the GI50 (UO-31) was > 100 µM (inactive), the GI50 (CAKI-1) was > 100 µM (inactive) and the GI50 (OVCAR-3) was > 100 µM (inactive). The GI50 (HCC 2998) was > 100 µM (inactive), the GI50 (LXFL 529) was > 100 µM (inactive) and the GI50 (HOP-18) was > 100 µM (inactive). The GI50 (SNB-75) was > 100 µM (inactive), the GI50 (MOLT-4) was > 100 µM (inactive) and the GI50 (SR) was > 100 µM (inactive). For the same compound, the GI50 (RPMI-8226) was > 100 µM (inactive), the GI50 (OVCAR-8) was > 100 µM (inactive) and the GI50 (SK-MEL-5) was > 100 µM (inactive). For the same compound, the GI50 (NCI-H522) was > 100 µM (inactive) and the GI50 (K562) was > 100 µM (inactive).
